Laboratory results: patent US20160082127A1, “PHOTOSENSITIZER PARTICLES FOR MEDICAL IMAGING AND/OR PHOTODYNAMIC THERAPY” (DCB-USA LLC, priority 2013, published 2016)

Tested on: mice skin
Assay: In vivo photohypersensitivity of mice skin
Set-up: species or system nude mice
Settings: 0.3 mg/kg i.v.
Protocol: It is well known that some PDT agents result in photohypersensitivity of the skin, which causes significant inconvenience in the daily life of the patient. Typical signs of photohypersensitivity include redness and swelling of the skin, visible angiopathy along with the formation of skin debris and even eschar in server cases. To investigate whether the present photosensitizer particles may elicit photohypersensitivity in the patient, 0.3 mg/kg native CPLA photosensitizer particles (LN1 particles from Example 2.1, above) and 0.3 mg/kg gas-loaded CPLA photosensitizer particles (LA1 particles from Example 2.1, above) were respectively injected to the tail of nude mice via intravenous injection 3 hours prior to light irradiation (15, 40 or 100 J/cm^2). Foscan® (0.3 mg/kg) was used as the positive control, while 1×PBS (100 μL) was used as negative control.

Oc1cccc(-c2c3nc(c(-c4cccc(O)c4)c4ccc([nH]4)c(-c4cccc(O)c4)c4nc(c(-c5cccc(O)c5)c5ccc2[nH]5)CC4)C=C3)c1 [Foscan®]
photohypersensitivity of skin (15 or 40 J/cm^2): little to mild photohypersensitivity
photohypersensitivity of skin (100 J/cm^2): significant photohypersensitivity
